Measured values as given in PubChem BioAssay (NCI).
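Tested at 5 concentrations; 48 h exposure; 96-well plates; endpoints linearly interpolated, else capped at highest concentration. Here, GI50 denotes the concentration required for 50% inhibition of growth. TGI: concentration producing complete growth inhibition.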

Experiments:
Experiment in all cases: NCI anticancer screen, dose series, 48 h
786-0 renal = test system: 786-0 renal
A498 renal = test system: A498 renal
A549 NSCLC = test system: A549 NSCLC
ACHN renal = test system: ACHN renal
BT-549 breast = test system: BT-549 breast
CAKI-1 renal = test system: CAKI-1 renal
DU-145 prostate = test system: DU-145 prostate
EKVX NSCLC = test system: EKVX NSCLC
HCC-2998 colon = test system: HCC-2998 colon
HCT-116 colon = test system: HCT-116 colon
HCT-15 colon = test system: HCT-15 colon
HL-60(TB) leukemia = test system: HL-60(TB) leukemia
HOP-62 NSCLC = test system: HOP-62 NSCLC
HOP-92 NSCLC = test system: HOP-92 NSCLC
HS 578T breast = test system: HS 578T breast
HT29 colon = test system: HT29 colon
IGROV1 ovarian = test system: IGROV1 ovarian
K-562 leukemia = test system: K-562 leukemia
KM12 colon = test system: KM12 colon
LOX IMVI melanoma = test system: LOX IMVI melanoma
M14 melanoma = test system: M14 melanoma
MCF7 breast = test system: MCF7 breast
MDA-MB-231 breast = test system: MDA-MB-231 breast
MDA-MB-435 = test system: MDA-MB-435
MDA-N = test system: MDA-N
MOLT-4 leukemia = test system: MOLT-4 leukemia
NCI-H226 lung = test system: NCI-H226 lung
NCI-H23 lung = test system: NCI-H23 lung
NCI-H460 lung = test system: NCI-H460 lung
NCI-H522 lung = test system: NCI-H522 lung
NCI/ADR-RES ovarian = test system: NCI/ADR-RES ovarian
OVCAR-3 ovarian = test system: OVCAR-3 ovarian
OVCAR-4 ovarian = test system: OVCAR-4 ovarian
OVCAR-5 ovarian = test system: OVCAR-5 ovarian
OVCAR-8 ovarian = test system: OVCAR-8 ovarian
PC-3 prostate = test system: PC-3 prostate
RPMI-8226 leukemia = test system: RPMI-8226 leukemia
RXF 393 renal = test system: RXF 393 renal
SF-268 CNS = test system: SF-268 CNS
SF-295 CNS = test system: SF-295 CNS
SF-539 CNS = test system: SF-539 CNS
SK-MEL-2 melanoma = test system: SK-MEL-2 melanoma
SK-MEL-28 melanoma = test system: SK-MEL-28 melanoma
SK-MEL-5 melanoma = test system: SK-MEL-5 melanoma
SN12C renal = test system: SN12C renal
SNB-19 CNS = test system: SNB-19 CNS
SNB-75 CNS = test system: SNB-75 CNS
SR leukemia = test system: SR leukemia
SW-620 colon = test system: SW-620 colon
T-47D breast = test system: T-47D breast
TK-10 renal = test system: TK-10 renal
U251 CNS = test system: U251 CNS
UACC-257 melanoma = test system: UACC-257 melanoma
UO-31 renal = test system: UO-31 renal
CCRF-CEM leukemia = test system: CCRF-CEM leukemia
COLO 205 colon = test system: COLO 205 colon
SK-OV-3 ovarian = test system: SK-OV-3 ovarian
UACC-62 melanoma = test system: UACC-62 melanoma

SMILES: COc1ccc2[nH]c3c(O)c(-c4c(C)cc5c([nH]c6ccc(OC)cc65)c4O)c(C)cc3c2c1
- TGI (786-0 renal): 8.62 µM
- GI50 (A498 renal): 4.78 µM
- TGI (A498 renal): 8.35 µM
- TGI (A549 NSCLC): 7.97 µM
- TGI (ACHN renal): 8.15 µM
- TGI (BT-549 breast): 8.2 µM
- GI50 (CAKI-1 renal): 4.27 µM
- TGI (CAKI-1 renal): 8.39 µM
- TGI (DU-145 prostate): 7.97 µM
- TGI (EKVX NSCLC): 7.8 µM
- TGI (HCC-2998 colon): 6.99 µM
- TGI (HCT-116 colon): 7.63 µM
- GI50 (HCT-15 colon): 4.2 µM
- TGI (HCT-15 colon): 8.2 µM
- GI50 (HL-60(TB) leukemia): 0.0321 µM
- TGI (HL-60(TB) leukemia): 4.96 µM
- TGI (HOP-62 NSCLC): 8.35 µM
- TGI (HOP-92 NSCLC): 8.18 µM
- TGI (HS 578T breast): 11.5 µM
- GI50 (HT29 colon): 3.71 µM
- TGI (HT29 colon): 7.6 µM
- TGI (IGROV1 ovarian): 8.04 µM
- GI50 (K-562 leukemia): 4.04 µM
- TGI (K-562 leukemia): 8.13 µM
- TGI (KM12 colon): 7.74 µM
- TGI (LOX IMVI melanoma): 8.06 µM
- TGI (M14 melanoma): 7.99 µM
- GI50 (MCF7 breast): 4.49 µM
- TGI (MCF7 breast): 8.43 µM
- TGI (MDA-MB-231 breast): 10.8 µM
- GI50 (MDA-MB-435): 4.34 µM
- TGI (MDA-MB-435): 8 µM
- GI50 (MDA-N): 4.5 µM
- TGI (MDA-N): 8.22 µM
- GI50 (MOLT-4 leukemia): 3.23 µM
- TGI (MOLT-4 leukemia): 7.52 µM
- TGI (NCI-H226 lung): 9.06 µM
- GI50 (NCI-H23 lung): 4.48 µM
- TGI (NCI-H23 lung): 8.38 µM
- TGI (NCI-H460 lung): 7.52 µM
- TGI (NCI-H522 lung): 9.2 µM
- TGI (NCI/ADR-RES ovarian): 8.13 µM
- TGI (OVCAR-3 ovarian): 7.79 µM
- TGI (OVCAR-4 ovarian): 7.22 µM
- GI50 (OVCAR-5 ovarian): 3.82 µM
- TGI (OVCAR-5 ovarian): 7.34 µM
- TGI (OVCAR-8 ovarian): 8.39 µM
- TGI (PC-3 prostate): 7.69 µM
- GI50 (RPMI-8226 leukemia): 3.61 µM
- TGI (RPMI-8226 leukemia): 7.45 µM
- TGI (RXF 393 renal): 8.82 µM
- TGI (SF-268 CNS): 8.06 µM
- GI50 (SF-295 CNS): 5.11 µM
- TGI (SF-295 CNS): 8.86 µM
- TGI (SF-539 CNS): 8.81 µM
- TGI (SK-MEL-2 melanoma): 10.7 µM
- TGI (SK-MEL-28 melanoma): 9.64 µM
- GI50 (SK-MEL-5 melanoma): 4.34 µM
- TGI (SK-MEL-5 melanoma): 8.18 µM
- TGI (SN12C renal): 8.17 µM
- TGI (SNB-19 CNS): 8.72 µM
- TGI (SNB-75 CNS): 7.18 µM
- GI50 (SR leukemia): 3.97 µM
- TGI (SR leukemia): 8.34 µM
- TGI (SW-620 colon): 10.3 µM
- TGI (T-47D breast): 13.8 µM
- TGI (TK-10 renal): 8.19 µM
- TGI (U251 CNS): 7.98 µM
- TGI (UACC-257 melanoma): 8.32 µM
- GI50 (UO-31 renal): 3.78 µM
- TGI (UO-31 renal): 7.12 µM

SMILES: c1cc2c3ccsc3c3sccc3c2s1
- TGI (786-0 renal): > 100 µM
- TGI (A498 renal): > 100 µM
- TGI (A549 NSCLC): > 100 µM
- TGI (ACHN renal): > 100 µM
- TGI (BT-549 breast): > 100 µM
- TGI (CAKI-1 renal): > 100 µM
- TGI (CCRF-CEM leukemia): > 100 µM
- TGI (COLO 205 colon): > 100 µM
- TGI (DU-145 prostate): > 100 µM
- TGI (EKVX NSCLC): > 100 µM
- TGI (HCC-2998 colon): > 100 µM
- TGI (HCT-116 colon): > 100 µM
- TGI (HCT-15 colon): > 100 µM
- TGI (HL-60(TB) leukemia): > 100 µM
- TGI (HOP-62 NSCLC): 70.5 µM
- TGI (HOP-92 NSCLC): > 100 µM
- TGI (HS 578T breast): 71.8 µM
- TGI (HT29 colon): > 100 µM
- TGI (IGROV1 ovarian): > 100 µM
- TGI (K-562 leukemia): > 100 µM
- TGI (KM12 colon): > 100 µM
- TGI (LOX IMVI melanoma): > 100 µM
- TGI (M14 melanoma): > 100 µM
- TGI (MCF7 breast): > 100 µM
- TGI (MDA-MB-231 breast): > 100 µM
- TGI (MDA-MB-435): > 100 µM
- TGI (MDA-N): > 100 µM
- TGI (MOLT-4 leukemia): > 100 µM
- TGI (NCI-H226 lung): > 100 µM
- TGI (NCI-H23 lung): > 100 µM
- TGI (NCI-H460 lung): > 100 µM
- TGI (NCI/ADR-RES ovarian): > 100 µM
- TGI (OVCAR-3 ovarian): > 100 µM
- TGI (OVCAR-4 ovarian): > 100 µM
- TGI (OVCAR-5 ovarian): > 100 µM
- TGI (OVCAR-8 ovarian): > 100 µM
- TGI (PC-3 prostate): > 100 µM
- TGI (RPMI-8226 leukemia): > 100 µM
- TGI (RXF 393 renal): > 100 µM
- TGI (SF-268 CNS): > 100 µM
- TGI (SF-295 CNS): > 100 µM
- TGI (SF-539 CNS): > 100 µM
- TGI (SK-MEL-2 melanoma): > 100 µM
- TGI (SK-MEL-28 melanoma): > 100 µM
- TGI (SK-MEL-5 melanoma): > 100 µM
- TGI (SK-OV-3 ovarian): > 100 µM
- TGI (SN12C renal): > 100 µM
- TGI (SNB-75 CNS): > 100 µM
- TGI (SR leukemia): > 100 µM
- TGI (SW-620 colon): > 100 µM
- TGI (T-47D breast): > 100 µM
- TGI (TK-10 renal): > 100 µM
- TGI (U251 CNS): > 100 µM
- TGI (UACC-257 melanoma): > 100 µM
- TGI (UACC-62 melanoma): > 100 µM
- TGI (UO-31 renal): > 100 µM
